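Where inhibition never reached the appropriate level, the endpoint shown equals the highest concentration tested. Otherwise, values were interpolated linearly from a five-concentration, 48-hour dose response in 96-well plates. TGI is the concentration that stops growth completely.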
Assays:
Test in all cases: NCI-60 cell line screen, 48 h
MDA-N = test system: MDA-N
HT29 colon = test system: HT29 colon
EKVX NSCLC = test system: EKVX NSCLC
OVCAR-5 ovarian = test system: OVCAR-5 ovarian
UACC-62 melanoma = test system: UACC-62 melanoma
K-562 leukemia = test system: K-562 leukemia
TK-10 renal = test system: TK-10 renal
M14 melanoma = test system: M14 melanoma
OVCAR-4 ovarian = test system: OVCAR-4 ovarian
SF-295 CNS = test system: SF-295 CNS
SW-620 colon = test system: SW-620 colon
LOX IMVI melanoma = test system: LOX IMVI melanoma
NCI-H23 lung = test system: NCI-H23 lung
CCRF-CEM leukemia = test system: CCRF-CEM leukemia
T-47D breast = test system: T-47D breast
UACC-257 melanoma = test system: UACC-257 melanoma
HCC-2998 colon = test system: HCC-2998 colon
BT-549 breast = test system: BT-549 breast
SR leukemia = test system: SR leukemia
SK-MEL-28 melanoma = test system: SK-MEL-28 melanoma

COc1cc2cc(C(=O)N3CC(CCl)c4c3cc([N+](C)(C)Cc3ccc([N+](=O)[O-])n3C)c3ccccc43)[nH]c2c(OC)c1OC (stereo not given)
TGI (MDA-N): 6.64 µM
TGI (HT29 colon): > 100 µM
TGI (EKVX NSCLC): 16.4 µM
TGI (OVCAR-5 ovarian): > 100 µM
TGI (UACC-62 melanoma): 3.14 µM
TGI (K-562 leukemia): > 100 µM
TGI (TK-10 renal): 14.3 µM
TGI (M14 melanoma): > 48 µM
TGI (OVCAR-4 ovarian): 6.35 µM
TGI (SF-295 CNS): > 38.8 µM
TGI (SW-620 colon): > 100 µM
TGI (LOX IMVI melanoma): 12.3 µM
TGI (NCI-H23 lung): 2.49 µM
TGI (CCRF-CEM leukemia): 18.6 µM
TGI (T-47D breast): 38.9 µM
TGI (UACC-257 melanoma): 5.4 µM
TGI (HCC-2998 colon): 2.48 µM
TGI (BT-549 breast): 11.5 µM
TGI (SR leukemia): 2.29 µM
TGI (SK-MEL-28 melanoma): 9.11 µM

From PubChem BioAssay (NCI)
